Test results: PubChem BioAssay (NCI)
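The compound was tested at five concentrations on cells cultured in 96-well plates, with a 48-hour exposure period. TGI: total growth inhibition.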

Experiments:
Experiment in all cases: DTP human tumour cell line panel, 48 h
UACC-62 melanoma = system: UACC-62 melanoma
UACC-257 melanoma = system: UACC-257 melanoma
SF-539 CNS = system: SF-539 CNS
NCI-H460 lung = system: NCI-H460 lung
OVCAR-8 ovarian = system: OVCAR-8 ovarian
COLO 205 colon = system: COLO 205 colon
NCI-H23 lung = system: NCI-H23 lung
CCRF-CEM leukemia = system: CCRF-CEM leukemia
ACHN renal = system: ACHN renal
OVCAR-4 ovarian = system: OVCAR-4 ovarian

C=C1C[C@]23CC[C@@H]4C(CO)(CO)CC(=O)C[C@]4(C)[C@@H]2C(O)C[C@H]1C3 (stereo not given in full)
TGI (UACC-62 melanoma): > 100 µM | TGI (UACC-257 melanoma): > 100 µM | TGI (SF-539 CNS): > 100 µM | TGI (NCI-H460 lung): > 100 µM | TGI (OVCAR-8 ovarian): > 100 µM | TGI (COLO 205 colon): > 100 µM | TGI (NCI-H23 lung): > 100 µM | TGI (CCRF-CEM leukemia): > 100 µM | TGI (ACHN renal): > 100 µM | TGI (OVCAR-4 ovarian): > 100 µM

COc1ccc(C2=C(N)c3ccccc3C2=O)cc1
TGI (UACC-62 melanoma): > 100 µM | TGI (UACC-257 melanoma): > 100 µM | TGI (SF-539 CNS): > 100 µM | TGI (NCI-H460 lung): > 100 µM | TGI (OVCAR-8 ovarian): > 100 µM | TGI (COLO 205 colon): > 100 µM | TGI (NCI-H23 lung): > 100 µM | TGI (CCRF-CEM leukemia): > 100 µM | TGI (ACHN renal): > 100 µM | TGI (OVCAR-4 ovarian): > 100 µM

CCCS(=O)OC1C(C2COC(C)(C)O2)OC2OC(C)(C)OC21 (stereo not given)
TGI (UACC-62 melanoma): 35.2 µM | TGI (UACC-257 melanoma): 28.2 µM | TGI (SF-539 CNS): 38.4 µM | TGI (NCI-H460 lung): > 62.1 µM | TGI (OVCAR-8 ovarian): 29.3 µM | TGI (COLO 205 colon): 27.2 µM | TGI (NCI-H23 lung): 23.4 µM | TGI (CCRF-CEM leukemia): 21.5 µM | TGI (ACHN renal): 26.9 µM | TGI (OVCAR-4 ovarian): 34.7 µM

O=C(n1c(=O)n(-c2ccc([N+](=O)[O-])cc2)c(=O)n1C(=O)C(Cl)(Cl)Cl)C(Cl)(Cl)Cl
TGI (UACC-62 melanoma): > 100 µM | TGI (UACC-257 melanoma): > 100 µM | TGI (SF-539 CNS): > 100 µM | TGI (NCI-H460 lung): > 100 µM | TGI (OVCAR-8 ovarian): > 100 µM | TGI (COLO 205 colon): > 100 µM | TGI (NCI-H23 lung): > 100 µM | TGI (CCRF-CEM leukemia): > 100 µM | TGI (ACHN renal): > 100 µM | TGI (OVCAR-4 ovarian): > 100 µM

NC(=S)N1N=C(c2ccc3c(c2)CCC3)CC1c1ccccc1 (stereo not given)
TGI (UACC-62 melanoma): 74.1 µM | TGI (UACC-257 melanoma): 86.9 µM | TGI (SF-539 CNS): 43 µM | TGI (NCI-H460 lung): 64.9 µM | TGI (OVCAR-8 ovarian): > 100 µM | TGI (COLO 205 colon): 50.8 µM | TGI (NCI-H23 lung): 95.5 µM | TGI (CCRF-CEM leukemia): > 100 µM | TGI (ACHN renal): > 100 µM | TGI (OVCAR-4 ovarian): 85.2 µM

O=C(NC(Cc1c[nH]c2ccccc12)C(=O)O)/C(=C/c1ccccc1)NC(=O)c1ccccc1 (stereo not given)
TGI (UACC-62 melanoma): > 100 µM | TGI (UACC-257 melanoma): > 100 µM | TGI (SF-539 CNS): > 100 µM | TGI (NCI-H460 lung): > 100 µM | TGI (OVCAR-8 ovarian): > 100 µM | TGI (COLO 205 colon): > 100 µM | TGI (NCI-H23 lung): > 100 µM | TGI (CCRF-CEM leukemia): > 100 µM | TGI (ACHN renal): > 100 µM | TGI (OVCAR-4 ovarian): > 100 µM

NC(=O)CN1CCN(c2nc(N3CCCC3)c3nc(Cl)c(NCc4ccccc4)nc3n2)CC1
TGI (UACC-62 melanoma): 17.2 µM | TGI (UACC-257 melanoma): 19.7 µM | TGI (SF-539 CNS): 17.5 µM | TGI (NCI-H460 lung): 17.5 µM | TGI (OVCAR-8 ovarian): > 50 µM | TGI (COLO 205 colon): 15.8 µM | TGI (NCI-H23 lung): 35.6 µM | TGI (CCRF-CEM leukemia): > 50 µM | TGI (ACHN renal): 32.2 µM | TGI (OVCAR-4 ovarian): 48.2 µM

COc1cc(/C=C/C=C2\CC(C)C/C(=C\C=C\c3ccc(O)c(OC)c3)C2=O)ccc1O (stereo not given)
TGI (UACC-62 melanoma): 26.7 µM | TGI (UACC-257 melanoma): 89.7 µM | TGI (SF-539 CNS): 82.3 µM | TGI (NCI-H460 lung): 92.3 µM | TGI (OVCAR-8 ovarian): 30.9 µM | TGI (COLO 205 colon): > 100 µM | TGI (NCI-H23 lung): 40.2 µM | TGI (CCRF-CEM leukemia): 15.6 µM | TGI (ACHN renal): 40.8 µM | TGI (OVCAR-4 ovarian): 39.9 µM

CC(=O)Oc1ccc(-c2c(OC(C)=O)c(OC(C)=O)c(-c3ccc(OC(C)=O)c(OC(C)=O)c3)c(OC(C)=O)c2OC(C)=O)cc1
TGI (UACC-62 melanoma): 33.7 µM | TGI (UACC-257 melanoma): 29.1 µM | TGI (SF-539 CNS): 34.3 µM | TGI (NCI-H460 lung): > 100 µM | TGI (OVCAR-8 ovarian): 28.2 µM | TGI (COLO 205 colon): 32 µM | TGI (NCI-H23 lung): 38 µM | TGI (CCRF-CEM leukemia): 37.4 µM | TGI (ACHN renal): 30.8 µM | TGI (OVCAR-4 ovarian): 31.8 µM

Cc1cc(C(C)(C)C)c(OCCCN2CCOCC2)c(C(C)(C)C)c1
TGI (UACC-62 melanoma): 29.8 µM | TGI (UACC-257 melanoma): 32 µM | TGI (SF-539 CNS): 33.7 µM | TGI (NCI-H460 lung): > 100 µM | TGI (OVCAR-8 ovarian): 35.4 µM | TGI (COLO 205 colon): 30.6 µM | TGI (NCI-H23 lung): 32 µM | TGI (CCRF-CEM leukemia): 33.2 µM | TGI (ACHN renal): 31.2 µM | TGI (OVCAR-4 ovarian): 31.5 µM

O=c1c2cc(Cl)ccc2n2nnc3ccc(NCCNCCO)c1c32
TGI (UACC-62 melanoma): 5.41 µM | TGI (UACC-257 melanoma): 3.6 µM | TGI (SF-539 CNS): 3.32 µM | TGI (NCI-H460 lung): 1.58 µM | TGI (OVCAR-8 ovarian): 2.53 µM | TGI (COLO 205 colon): 2.68 µM | TGI (NCI-H23 lung): 2.86 µM | TGI (CCRF-CEM leukemia): 4.44 µM | TGI (ACHN renal): 2.43 µM | TGI (OVCAR-4 ovarian): 2.52 µM

CCCCCCCCCCCOCCC1C(C(C)OCCN2CCCC2)OC2OC(C)(C)OC21 (stereo not given)
TGI (UACC-62 melanoma): 3.28 µM | TGI (UACC-257 melanoma): 3.78 µM | TGI (SF-539 CNS): 3.68 µM | TGI (NCI-H460 lung): 5.05 µM | TGI (OVCAR-8 ovarian): 11.3 µM | TGI (COLO 205 colon): 3.88 µM | TGI (NCI-H23 lung): 11 µM | TGI (CCRF-CEM leukemia): > 23.9 µM | TGI (ACHN renal): 10.8 µM | TGI (OVCAR-4 ovarian): 22.3 µM

COc1ccc(N2C(=O)CSC2c2cc(OC)c(OC)c(OC)c2)cc1 (stereo not given)
TGI (UACC-62 melanoma): 20.9 µM | TGI (UACC-257 melanoma): 28.9 µM | TGI (SF-539 CNS): > 100 µM | TGI (NCI-H460 lung): 63.5 µM | TGI (OVCAR-8 ovarian): > 100 µM | TGI (COLO 205 colon): 54.1 µM | TGI (NCI-H23 lung): > 100 µM | TGI (CCRF-CEM leukemia): 35.1 µM | TGI (ACHN renal): 40.9 µM | TGI (OVCAR-4 ovarian): > 100 µM

Nc1ncc(Cc2nn3c(COc4ccc(Cl)cc4)nnc3s2)s1
TGI (UACC-62 melanoma): > 100 µM | TGI (UACC-257 melanoma): > 100 µM | TGI (SF-539 CNS): > 100 µM | TGI (NCI-H460 lung): > 100 µM | TGI (OVCAR-8 ovarian): > 100 µM | TGI (COLO 205 colon): > 100 µM | TGI (NCI-H23 lung): > 100 µM | TGI (CCRF-CEM leukemia): > 100 µM | TGI (ACHN renal): 14 µM | TGI (OVCAR-4 ovarian): > 100 µM

C=C1C(=O)O[C@H]2[C@@H](O)[C@H](C)CCC/C(C)=C/CC[C@@]3(C)O[C@@H]3C[C@@H]12
TGI (UACC-62 melanoma): 22.6 µM | TGI (UACC-257 melanoma): 22.4 µM | TGI (SF-539 CNS): 11.8 µM | TGI (NCI-H460 lung): 16.8 µM | TGI (OVCAR-8 ovarian): > 51.2 µM | TGI (COLO 205 colon): 12.3 µM | TGI (NCI-H23 lung): 21.8 µM | TGI (CCRF-CEM leukemia): 11.7 µM | TGI (ACHN renal): 6.16 µM | TGI (OVCAR-4 ovarian): 19.8 µM

Fc1ccccc1C1SCC2=Nc3ccccc3CN21 (stereo not given)
TGI (UACC-62 melanoma): > 100 µM | TGI (UACC-257 melanoma): > 100 µM | TGI (SF-539 CNS): > 100 µM | TGI (NCI-H460 lung): > 100 µM | TGI (OVCAR-8 ovarian): > 100 µM | TGI (COLO 205 colon): > 100 µM | TGI (NCI-H23 lung): > 100 µM | TGI (CCRF-CEM leukemia): > 100 µM | TGI (ACHN renal): > 100 µM | TGI (OVCAR-4 ovarian): > 100 µM

NC(=O)Nc1n[nH]c(-c2ccccc2)n1
TGI (UACC-62 melanoma): > 100 µM | TGI (UACC-257 melanoma): > 100 µM | TGI (SF-539 CNS): > 100 µM | TGI (NCI-H460 lung): > 100 µM | TGI (OVCAR-8 ovarian): > 100 µM | TGI (COLO 205 colon): > 100 µM | TGI (NCI-H23 lung): > 100 µM | TGI (CCRF-CEM leukemia): > 100 µM | TGI (ACHN renal): > 100 µM | TGI (OVCAR-4 ovarian): > 100 µM
